Here are results for 21 molecules from ChEMBL document CHEMBL4831522, “Structure-Based Optimization of Quinazolines as Cruzain and TbrCATL Inhibitors” (J Med Chem, 2021).

Each structure is given as a SMILES string. The source made the active and inactive calls. No cut-off for these calls is given here.

Series [1] concerns the target Cruzipain (Trypanosoma cruzi) (UniProt P25779). The series can be described thus: Inhibition of recombinant Trypanosoma cruzi cruzain at 100 uM using Z-FR-AMC as substrate by fluorometry relative to control.
Series [2] deals with Trypanosoma brucei brucei. The series can be described thus: Antitrypanosomal activity against Trypanosoma brucei brucei Lister 427 bloodstream forms measured after 72 hrs by SYBR green dye based assay. Conditions: Lister 427, 72 h. The series is classed as functional, organism-based.
A short description of series [3]: Cytotoxicity against mouse C2C12 cells. The series is classed as cell-based.
Series [4] concerns the target Rhodesain (Trypanosoma brucei rhodesiense) (UniProt Q95PM0). In words: Inhibition of recombinant Trypanosoma brucei rhodesiense MVAT4 rhodesain expressed in Pichia pastoris at 100 uM using Z-FR-AMC as substrate by fluorometry relative to control.
Another series deals with Trypanosoma cruzi. The series can be described thus: Trypanocidal activity against amastigotes form of Trypanosoma cruzi CA-I/72 infected in mouse C2C12 cells assessed as inhibition of parasite replication incubated for 48 hrs by DAPI staining based microscopic analysis. The series is classed as functional, organism-based. The conditions noted are these: CA-I/72, C2C12, 48 h.

Series [5] is described as follows: Selectivity index, ratio of CC50 for cytotoxicity against mouse C2C12 cells to EC50 for trypanocidal activity against Trypanosoma cruzi […] infected in mouse C2C12 cells. The series is classed as toxicity, cell-based. Conditions: read-out: Selectivity Index.
Series [6] addresses Cruzipain (Trypanosoma cruzi) (UniProt P25779). The series can be described thus: Inhibition of recombinant Trypanosoma cruzi cruzain using Z-FR-AMC as substrate and compound-enzyme complex preincubated for 5 mins in presence of 0.01% Triton-X100 by fluorometry relative to control.
Series [7] shares this target. The series can be described thus: Inhibition of recombinant Trypanosoma cruzi cruzain using Z-FR-AMC as substrate and compound-enzyme complex preincubated for 5 mins in presence of 0.1% Triton-X100 by fluorometry relative to control.
Series [8] shares this target. The series can be described thus: Inhibition of recombinant Trypanosoma cruzi cruzain using Z-FR-AMC as substrate and compound-enzyme complex preincubated for 5 mins in presence of 0.001% Triton-X100 by fluorometry relative to control.
Series [9] concerns the target T1, Cruzipain (Trypanosoma cruzi, UniProt P25779). The series can be described thus: Inhibition of recombinant Trypanosoma cruzi cruzain using Z-FR-AMC as substrate by fluorometry.
Series [10] has as its target Cruzipain (Trypanosoma cruzi) (UniProt P25779). The series can be described thus: Inhibition of recombinant Trypanosoma cruzi cruzain using Z-FR-AMC as substrate when compound was preincubated for 5 mins in presence of BSA and 0.001% Triton-X100 followed by further incubation for 5 mins in presence of enzyme relative to control. The conditions noted are these: time 10.0 min.

Series [11] has the same target. In words: Inhibition of recombinant Trypanosoma cruzi cruzain at 20 uM using Z-FR-AMC as substrate by fluorometry relative to control.
Another series deals with Rhodesain (Trypanosoma brucei rhodesiense, UniProt Q95PM0). In words: Inhibition of recombinant Trypanosoma brucei rhodesiense MVAT4 rhodesain expressed in Pichia pastoris using Z-FR-AMC as substrate by fluorometry.
The target of series [12] is Cruzipain (Trypanosoma cruzi) (UniProt P25779). In words: Competitive inhibition of Trypanosoma cruzi cruzain assessed as unchanged initial velocity up to 25 uM using varying levels of Z-FR-AMC as substrate by Michaelis-Menten analysis. The conditions noted are these: dose microM <=25.
For series [13], the target named is T1, Cruzipain. In words: Competitive inhibition of Trypanosoma cruzi cruzain assessed as inhibition constant using varying levels of Z-FR-AMC as substrate by Michaelis-Menten analysis.
Series [14] concerns the target Cruzipain (Trypanosoma cruzi) (UniProt P25779). The series can be described thus: Competitive inhibition of Trypanosoma cruzi cruzain assessed as increase in apparent Kapp up to 25 uM using varying levels of Z-FR-AMC as substrate by Michaelis-Menten analysis. Conditions: dose microM <=25.

T1 sequence (P25779 whole entry): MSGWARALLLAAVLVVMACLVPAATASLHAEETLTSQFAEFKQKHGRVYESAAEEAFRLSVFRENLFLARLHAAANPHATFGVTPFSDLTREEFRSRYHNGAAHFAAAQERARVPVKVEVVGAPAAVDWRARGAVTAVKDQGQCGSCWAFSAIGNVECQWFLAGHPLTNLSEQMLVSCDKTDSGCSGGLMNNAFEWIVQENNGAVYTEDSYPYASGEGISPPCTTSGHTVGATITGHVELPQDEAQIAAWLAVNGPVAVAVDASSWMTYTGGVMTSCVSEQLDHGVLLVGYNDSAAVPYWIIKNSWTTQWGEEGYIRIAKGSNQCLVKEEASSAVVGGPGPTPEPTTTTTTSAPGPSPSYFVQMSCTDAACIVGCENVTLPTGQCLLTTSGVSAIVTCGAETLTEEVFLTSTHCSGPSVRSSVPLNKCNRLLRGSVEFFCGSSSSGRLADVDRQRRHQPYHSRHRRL
Sequence of Rhodesain (Trypanosoma brucei rhodesiense) (Q95PM0 1-450): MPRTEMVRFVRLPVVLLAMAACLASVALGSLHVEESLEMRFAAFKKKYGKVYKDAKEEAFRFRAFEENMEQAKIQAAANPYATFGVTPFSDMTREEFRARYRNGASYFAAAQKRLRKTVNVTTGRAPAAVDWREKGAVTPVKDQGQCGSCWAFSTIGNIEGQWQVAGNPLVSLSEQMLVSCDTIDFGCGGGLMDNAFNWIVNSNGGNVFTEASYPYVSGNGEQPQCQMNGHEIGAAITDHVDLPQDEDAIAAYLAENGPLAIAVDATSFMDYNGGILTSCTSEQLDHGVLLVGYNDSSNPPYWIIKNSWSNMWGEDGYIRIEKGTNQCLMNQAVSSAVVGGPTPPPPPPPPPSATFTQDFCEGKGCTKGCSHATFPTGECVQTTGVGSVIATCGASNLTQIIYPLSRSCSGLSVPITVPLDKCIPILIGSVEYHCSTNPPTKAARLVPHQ
Sequence of Rhodesain (Q95PM0 whole entry): as the sequence (Q95PM0 1-450) above
Sequence of Cruzipain (Trypanosoma cruzi) (P25779 123-467 limits assumed): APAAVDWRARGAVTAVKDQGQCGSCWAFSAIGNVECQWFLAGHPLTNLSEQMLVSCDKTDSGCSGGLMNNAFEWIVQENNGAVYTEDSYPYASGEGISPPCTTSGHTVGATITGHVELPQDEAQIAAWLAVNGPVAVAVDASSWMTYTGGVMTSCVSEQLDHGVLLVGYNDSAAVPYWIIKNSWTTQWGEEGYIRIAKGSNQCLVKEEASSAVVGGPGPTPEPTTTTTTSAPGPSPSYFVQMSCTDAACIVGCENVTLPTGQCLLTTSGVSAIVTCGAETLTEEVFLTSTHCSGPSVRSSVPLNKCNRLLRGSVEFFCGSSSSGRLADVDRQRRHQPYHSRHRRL

As for `Fc1cccc(Nc2nc(Nc3ccccc3)nc3ccccc23)c1`, the inhibition in series [1] is 46%; in [4], 17%. Besides, the concentration for a half-maximal effect (EC50) in series [2] is 9 µM; in the series with Trypanosoma cruzi, 0.07 µM. This molecule also registered a CC50 in series [3] greater than 10 µM. The selectivity ratio in series [5] was greater than 150.

Regarding `c1ccc(CNc2ccnc(Nc3ccccc3)n2)cc1`, the EC50 in series [2] was greater than 50 µM; with Trypanosoma cruzi, 7 µM. Moreover, in series [3], the CC50 was greater than 10 µM. Also, the inhibition in series [4] was found to be 6%. For the same molecule, the selectivity ratio in series [5] was greater than 1.

In the case of `Clc1ccc(Nc2nc(NCCN3CCOCC3)c3ccccc3n2)cc1`, the inhibition in series [6] turned out to be 67%; in series [1], 95%; in series [7] it was 80%; in series [8] it was 75%; in series [10] it was 62%; in series [4] it was 48%. The EC50 in [2] came out at 23.6 µM; with Trypanosoma cruzi, 370 µM. The IC50 at Cruzipain [9] stood at 2.5 µM. In addition, the cytotoxic concentration (CC50) in series [3] was greater than 10 µM. For the same molecule, the selectivity ratio in [5] was greater than 27.

For the molecule `OCCCNc1nc(NCCN2CCOCC2)c2ccccc2n1`, the inhibition came out at 67% in series [1] and 22% in series [4]. In addition, the values for the EC50 (in series [2]; in the series with Trypanosoma cruzi) were greater than 50 µM and 35 µM, respectively. For the same molecule, the half-maximal cytotoxic concentration (CC50) in series [3] is greater than 10 µM. Further, the selectivity ratio in series [5] was greater than 0.3.

Turning to `OCCCNc1nc(Nc2ccc(Cl)cc2)nc2ccccc12`, the inhibition in series [6] stood at 36%; in series [1], 87%; in series [7], 35%; in series [8], 47%; in series [10], 35%; in [4] it was 63%. Further, the values for the EC50 (in series [2]; with Trypanosoma cruzi) were 9 µM and 0.25 µM, respectively. On Cruzipain [9], the IC50 is 7.3 µM. In series [3], this molecule returned a CC50 greater than 10 µM. For the same molecule, the selectivity ratio in series [5] is greater than 40.

As to `O=C(Nc1ccccc1)c1ccc(Nc2nc(NCCN3CCOCC3)c3ccccc3n2)cc1`, the inhibition in series [1] turned out to be 84%; in [4], 29%. Moreover, the EC50 in series [2] is 2.7 µM; with Trypanosoma cruzi it was 0.8 µM. The CC50 in [3] was greater than 10 µM. For the same molecule, the selectivity ratio in [5] was greater than 12.

For `Clc1ccc(Nc2nc(NCc3ccccc3)c3ccccc3n2)cc1`, the inhibition was 48% in series [6]; 1% in series [7]; 42% in series [8]; 78% in [11]; 35% in series [10]. Also, the EC50 was found to be 93 µM in series [2] and 0.5 µM in the series with Trypanosoma cruzi. The results for the IC50 at Cruzipain [9] and at Rhodesain were 2.4 µM and 33 µM, respectively. In [3], this molecule showed a CC50 of 10 µM. Further, in series [5], the selectivity ratio worked out at 21.

With `O=C(Nc1ccccc1)c1ccc(Nc2nc(NCc3ccccc3)c3ccccc3n2)cc1`, the inhibition is 54% in series [6], 4% in series [7], 100% in series [8] and 8% in series [10]. Besides, the EC50 in series [2] is greater than 50 µM; in the series on Trypanosoma cruzi, 1.8 µM. This molecule also had a cytotoxic concentration (CC50) in series [3] greater than 10 µM. The selectivity ratio in series [5] is greater than 6.

For the molecule `Cn1cnc2c(NCc3ccccc3)nc(Nc3ccccc3)nc21`, the EC50 came out at 23.8 µM in series [2] and 2.2 µM in the series with Trypanosoma cruzi. Further, the CC50 in series [3] is greater than 10 µM. For the same molecule, the inhibition in series [4] turned out to be 11%. In series [5], the selectivity ratio is greater than 5.

With `Oc1ccc(Nc2nc(NCc3ccccc3)c3ccccc3n2)cc1`, the inhibition in series [6] is 56%; in series [1], 100%; in [7], 40%; in [8], 81%; in [10], 55%; in series [4] it was 95%. Moreover, the EC50 was greater than 50 µM in [2] and 5.9 µM with Trypanosoma cruzi. The results for the IC50 at Cruzipain [9] and on Rhodesain were 18 µM and 23 µM, respectively. The molecule also registered a CC50 in series [3] greater than 10 µM. Besides, the selectivity ratio in series [5] is greater than 2.

Take `Oc1cccc(Nc2nc(NCc3ccccc3)c3ccccc3n2)c1`: the inhibition in series [6] was 54%; in series [1] it was 100%; in series [7], 33%; in series [8], 65%; in series [10], 44%; in [4], 98%. Further, the EC50 came out at 13.8 µM in series [2] and 0.93 µM with Trypanosoma cruzi. In addition, the IC50 on Cruzipain [9] is 18 µM; at Rhodesain it was 26 µM. The same molecule yielded a CC50 in [3] of 10 µM. In series [5], the selectivity ratio is greater than 11.

With `N=C(N)c1ccc(OCCCCCOc2ccc(C(=N)N)cc2)cc1` [PENTAMIDINE], the EC50 in [2] amounted to 0.026 µM.

Regarding `c1ccc(CNc2nc(Nc3ccccn3)nc3ccccc23)cc1`, the inhibition in series [1] was found to be 100%; in [4], 10%. For the same molecule, the results for the EC50 (in [2]; in the series on Trypanosoma cruzi) were greater than 50 µM and 2.7 µM, respectively. In series [3], the CC50 was greater than 10 µM. Further, in series [5], the selectivity ratio is greater than 4.

In the case of `OCCCNc1nc(NCc2ccccc2)c2ccccc2n1`, the inhibition is 31% in series [6]; 100% in [1]; 33% in [7]; 25% in series [8]; 30% in series [10]; 47% in [4]. Further, the EC50 was greater than 50 µM in series [2] and 0.5 µM in the series with Trypanosoma cruzi. The concentration for half-maximal inhibition (IC50) at Cruzipain [9] is 22 µM. The CC50 in [3] was greater than 10 µM. Further, the selectivity ratio in series [5] was greater than 193.

For `Cn1cnc2c(NCc3ccccc3)nc(Nc3ccc(Cl)cc3)nc21`, the EC50 in series [2] turned out to be 18.4 µM; in the series on Trypanosoma cruzi, 12 µM. In series [3], this molecule registered a CC50 greater than 10 µM. In series [4], the inhibition worked out at 5%. Further, the selectivity ratio in series [5] was greater than 1.

Turning to `OCCCNc1nc(Nc2cccc(F)c2)c2ccccc2n1`, the inhibition in series [6] was 67%; in [1], 89%; in series [7] it was 64%; in series [8] it was 58%; in series [10], 57%; in [4], 56%. In addition, the half-maximal effective concentration (EC50) in [2] is 17.8 µM; in the series on Trypanosoma cruzi it was 0.09 µM. Also, the IC50 on Cruzipain [9] was 25 µM. The same molecule yielded a CC50 in series [3] greater than 10 µM. Further, in series [5], the selectivity ratio was greater than 109.

`O=C(c1ccc(Nc2nc(NCCN3CCOCC3)c3ccccc3n2)cc1)N1CCOCC1`: the inhibition in series [6] came to 63%; in [1] it was 85%; in series [7] it was 73%; in [8] it was 49%; in series [10] it was 42%; in [4] it was 36%. Further, the figures for the EC50 (in [2]; in the series with Trypanosoma cruzi) were greater than 50 µM and 15 µM, respectively. At Cruzipain [9], the half-inhibitory concentration (IC50) came out at 13.5 µM. Moreover, the CC50 in [3] was greater than 10 µM. Besides, the selectivity ratio in series [5] was greater than 1.

As to `c1ccc(CNc2nc(Nc3ccccc3)nc3ccccc23)cc1`, the inhibition came to 50% in series [6], 43% in series [10] and 77% in series [4]. The EC50 was 17.5 µM in [2] and 0.047 µM in the series with Trypanosoma cruzi. In addition, the inhibition entry in series [12] and in series [14] was “Active” throughout. Besides, the IC50 on Cruzipain [9] stood at 8 µM; on Rhodesain, 17.5 µM. In addition, the Ki on Cruzipain [13] amounted to 1.7 µM. In series [3], this molecule returned a CC50 greater than 10 µM. The selectivity ratio in series [5] is greater than 211.

For `O=C(c1ccc(Nc2nc(NCCCO)c3ccccc3n2)cc1)N1CCOCC1`, the inhibition is 53% in series [6]; 90% in series [1]; 69% in [7]; 53% in series [8]; 51% in series [10]; 62% in [4]. In addition, the EC50 in series [2] is greater than 50 µM; in the series on Trypanosoma cruzi, 22 µM. For the same molecule, the IC50 at Cruzipain [9] is 15 µM. In series [3], this molecule had a CC50 greater than 10 µM. In series [5], the selectivity ratio was greater than 0.5.

Consider `c1ccc(CNc2nc(Nc3nccs3)nc3ccccc23)cc1`, for which the inhibition in [6] was determined as 60%; in series [1], 100%; in series [7] it was 22%; in series [8] it was 100%; in series [10], 53%; in [4], 100%. For the same molecule, the concentration for a half-maximal effect (EC50) was greater than 50 µM in series [2] and 5.6 µM in the series on Trypanosoma cruzi. Besides, the IC50 at Cruzipain [9] turned out to be 16 µM; at Rhodesain, 12.5 µM. In addition, the CC50 in series [3] is greater than 10 µM. Also, in series [5], the selectivity ratio was greater than 2.

Molecule `O=C(Cn1ccnc1[N+](=O)[O-])NCc1ccccc1` [BENZNIDAZOLE] returned a CC50 in [3] greater than 50 µM. Also, the EC50 in the series with Trypanosoma cruzi stood at 5.4 µM. In series [5], the selectivity ratio is greater than 9.

A word on the inhibition: it is the change of the read-out against control, counted positive when it falls. What is called EC50 is the concentration at which the effect is half-maximal. What is called CC50 is the concentration that lowers cell viability or growth by half. A low value points to harm at low concentration. In general, IC50 refers to the point on the concentration scale where inhibition reaches its midpoint. A word on the Ki: it is the dissociation constant of the complex between target and ligand, obtained from inhibition or displacement.
